Results published in paper PMC8092268, “Quorum Sensing in Streptococcus mutans Regulates Production of Tryglysin, a Novel RaS-RiPP Antimicrobial Compound” (mBio, 2021).
Entries after “also recorded” stand apart in the source; their conditions may differ. Marks after values point to notes of the source that are not given here. No end group written: not given here.

How the values were obtained:
[1] = tested on: Pshp-luxAB reporter (PdrA/SHP system); experiment: luciferase assay, chromosomal Pshp-luxAB reporter, wild type; details: CDM; for induction of Pshp-luxAB by tryglysins: 100 nM tryglysin
E. faecalis V583 = experiment: growth inhibition by tryglysins; format: cell-based, Enterococcus faecalis; design: key: −: not inhibited; +: mildly inhibited; ++: inhibited; details: 100 nM tryglysin, CDM, 37°C, 5% CO2, OD600 every hour; summary of growth curves
Method: (§1) For experiments to examine the effect of tryglysins, bacterial strains were grown from prestored glycerol stocks at −80°C and inoculated into THY broth. […] To monitor growth, OD600 was measured using a GENESYS 30 Vis spectrophotometer every hour.

L. lactis ATCC 11454 = experiment: growth inhibition by tryglysins; format: cell-based, Lactococcus lactis; design: key: −: not inhibited; +: mildly inhibited; ++: inhibited; details: 100 nM tryglysin, CDM, 37°C, 5% CO2, OD600 every hour; summary of growth curves
Method: as §1

S. pyogenes NZ131 = experiment: growth inhibition by tryglysins; format: cell-based, Streptococcus pyogenes; design: key: −: not inhibited; +: mildly inhibited; ++: inhibited; details: 100 nM tryglysin, CDM, 37°C, 5% CO2, OD600 every hour; summary of growth curves
Method: as §1

S. ferus DSM 20646 = experiment: growth inhibition by tryglysins; format: cell-based, Streptococcus ferus; design: key to Level of inhibition: −: not inhibited; +: mildly inhibited; ++: inhibited; details: CDM; for Level of inhibition: 100 nM tryglysin, 37°C, 5% CO2, OD600 every hour, summary of growth curves; for growth inhibition at 100 nM (titration): Fig. 6
Method: as §1

S. mutans UA159 [2] = experiment: growth inhibition by tryglysins; format: cell-based, Streptococcus mutans; design: key to Level of inhibition: −: not inhibited; +: mildly inhibited; ++: inhibited; details: for Level of inhibition: 100 nM tryglysin, 37°C, 5% CO2, OD600 every hour, summary of growth curves; for growth inhibition at 100 nM (titration): 9-h growth assay, Fig. 6
Method: as §1

S. gordonii Challis Bt = experiment: growth inhibition by tryglysins; format: cell-based, Streptococcus gordonii; design: key: −: not inhibited; +: mildly inhibited; ++: inhibited; details: 100 nM tryglysin, CDM, 37°C, 5% CO2, OD600 every hour; summary of growth curves
Method: as §1

S. mitis CCUG 31611 = experiment: growth inhibition by tryglysins; format: cell-based, Streptococcus mitis; design: key: −: not inhibited; +: mildly inhibited; ++: inhibited; details: 100 nM tryglysin, CDM, 37°C, 5% CO2, OD600 every hour; summary of growth curves
Method: as §1

S. oralis 108 = experiment: growth inhibition by tryglysins; format: cell-based, Streptococcus oralis; design: key: −: not inhibited; +: mildly inhibited; ++: inhibited; details: 100 nM tryglysin, CDM, 37°C, 5% CO2, OD600 every hour; summary of growth curves
Method: as §1

S. pneumoniae D39 = experiment: growth inhibition by tryglysins; format: cell-based, Streptococcus pneumoniae; design: key to Level of inhibition: −: not inhibited; +: mildly inhibited; ++: inhibited; details: for Level of inhibition: 100 nM tryglysin, CDM, 37°C, 5% CO2, OD600 every hour, summary of growth curves
Method: as §1

S. agalactiae A909 = experiment: growth inhibition by tryglysins; format: cell-based, Streptococcus agalactiae; design: key: −: not inhibited; +: mildly inhibited; ++: inhibited; details: 100 nM tryglysin, CDM, 37°C, 5% CO2, OD600 every hour; summary of growth curves
Method: as §1

S. bovis JB1 = experiment: growth inhibition by tryglysins; format: cell-based, Streptococcus bovis; design: key: −: not inhibited; +: mildly inhibited; ++: inhibited; details: 100 nM tryglysin, CDM, 37°C, 5% CO2, OD600 every hour; summary of growth curves
Method: as §1

S. mutans UA159 [3] = experiment: CFU/ml assay (bacteriostatic or bactericidal); format: cell-based, Streptococcus mutans; details: 100 nM, CDM; for recovery of viability: 24 h; for mode of action on viability: overall effect
Method: To perform CFU/milliliter assays, S. mutans was grown overnight, washed, and resuspended in CDM as outlined above in the “Luciferase assays with chromosomal reporters” section, with the exception that replicate tubes for harvest at each time point for both no-tryglysin and tryglysin-treated conditions were inoculated from bacterial cultures resuspended overnight. […] At this time point (0 h) and at 1, 2, 4, 6, 8 and 24 h after tryglysin addition, a set of no-tryglysin and tryglysin-treated tubes were harvested. At each time point, 100 μl from each tube in a set was harvested and diluted 1:10 successively in fresh THY. Dilutions from 10^−3 to 10^−6 (depending on the time point) were plated as follows: for each dilution, 10 μl was plated in triplicate on THY agar plates and allowed to drip vertically down the plate. This allowed for the spread of S. mutans colonies for later CFU/ml counting. After each dilution plating, plates were placed at 37°C and incubated for 48 h. […] After 2 days of incubation, colonies were counted for each time point, replicate, and condition, and the number of CFU/milliliter was calculated. Drip plates were considered to have accurate counts if colonies were between 10 and 150 colonies per drip. […] Statistical analysis was performed using a one-way ANOVA with Sidak’s multiple comparison posttest on Graph Pad Prism.

S. mutans UA159 [4] = experiment: cell chaining by microscopy; format: cell-based, Streptococcus mutans; details: 100 nM
Method: For microscopic analysis of live cells exposed to tryglysins, S. mutans strains were inoculated and grown as described above in the “Luciferase assays with chromosomal reporters” section. […] For microscopic analysis of samples, 2 μl of live cells was taken at 2 h, 5 h, and 7 h after the addition of tryglysins and examined using an Olympus CKX53 inverted microscope with a 40× LCACHN-iPC infinity objective (LCACHN40XIPC; numerical aperture, 0.55) connected to a SC50 camera (Olympus). Images were processed using Olympus Stream Image Analysis software (Olympus).
For microscopic analysis of fixed cells exposed to tryglysin A, S. mutans strains were inoculated and grown as described above in the “Luciferase assays with chromosomal reporters” section. […] Supernatant was discarded, and cells were resuspended in 1 ml of fresh CDM. Resuspended cells were dropped into 10 ml of ice-cold 80% methanol and incubated for 1 h at room temperature. Afterwards, 800 μl of 4% paraformaldehyde was added to each methanol cell suspension. The mixture was incubated at room temperature for 5 min, and cells were spun down at 2,500 × g for 10 min. Supernatant was discarded, and cells were resuspended in 200 to 800 μl chilled GTE buffer (50 mM glucose, 20 mM Tris-HCl [pH 7.5], 1 mM EDTA). Cells were kept at 4°C overnight, and then 2 to 5 μl of cells in GTE buffer were placed on a microscope slide. Prepared slides were examined using an Olympus BX51 fluorescence microscope with a 100× UPLFLN objective (UPLFLN 100XO2; numerical aperture, 1.3) connected to an Olympus DP72 Single Chip color charge-coupled-device (CCD) camera. Images were processed using ImageJ 1.52i ([80]). […] Cells were classified as being in chains greater than three per chain or equal to or lesser than three per chain. The percentage of cells belonging to either of these categories was calculated as the number of cells in the category/total number of cells. […] For statistical analysis, data were analyzed via a one-way analysis of variance (ANOVA) with Dunnet’s multiple comparison posttest in Graph Pad Prism.

[5] = tested on: PwgkA-luxAB reporter (PdrA/SHP system); experiment: luciferase assay, chromosomal PwgkA-luxAB reporter, wild type; details: CDM, 100 nM tryglysin
S. mutans UA159 [6] = experiment: growth inhibition by UV-exposed tryglysin A; format: cell-based, Streptococcus mutans; details: short-wavelength UV light 1 h, 2 h or 4 h; 100 or 500 nM tryglysin A; CDM
Method: To monitor growth, OD600 was measured using a GENESYS 30 Vis spectrophotometer every hour, and data were plotted using Graph Pad Prism 8.0.0.

[7] = 5 h, A: one-way ANOVA with Dunnet's posttest
[8] = 7 h, A: one-way ANOVA with Dunnet's posttest

Substance	Level of inhibition (E. faecalis V583)	Level of inhibition (L. lactis ATCC 11454)	Level of inhibition (S. pyogenes NZ131)	Level of inhibition (S. ferus DSM 20646)	growth inhibition at 100 nM (titration) (S. ferus DSM 20646)	optical density of cultures parallel to CFU assay (S. mutans UA159 [2])	Level of inhibition (S. mutans UA159 [2]; CDM)	growth inhibition at 100 nM (titration) (S. mutans UA159 [2]; CDM)	Level of inhibition (S. gordonii Challis Bt)	Level of inhibition (S. mitis CCUG 31611)	Level of inhibition (S. oralis 108)	Level of inhibition (S. pneumoniae D39)	Level of inhibition (S. agalactiae A909)	Level of inhibition (S. bovis JB1)	recovery of viability (S. mutans UA159 [3])	mode of action on viability (S. mutans UA159 [3])	cell chaining (S. mutans UA159 [4]; 2 h)	cell chaining (S. mutans UA159 [4]; [7])	cell chaining (S. mutans UA159 [4]; [8])	induction of Pshp-luxAB by tryglysins [1]	further results
GLDWWSL [XIP, reference compound]																					induction of Pshp-luxAB reporter (cross talk) ([1]; 1 μM, Fig. S2C, performed twice): did not observe any induction
VNCWGKH (also: sidechain bridge or staple (positions not given here)) [tryglysin B, 7-mer macrocyclic peptide VNCWGKH carrying the tetrahydro[5,6]benzindole modification, predicted product of the S. mutans wgk cluster]	−	−	−	++	substantially inhibited	A proportionate inhibition and restoration of growth were observable by optical density measurements	++	substantially inhibited	+	++	++	++	+	+	treated cells were able to overcome this by 24 h	bacteriostatic activities rather than bactericidal	small chains were observed	appeared to do the same	appeared to do the same	do not induce the system	concentration required for complete growth inhibition (S. mutans UA159 [2]; CDM, over the 9-h growth assay, Fig. 6A): 1 µM; induction of PwgkA-luxAB by tryglysins [5]: do not induce the system
VNSWGKH (also: sidechain bridge or staple (positions not given here)) [tryglysin A, macrocyclic 7-mer RiPP from S. ferus, VNSWGKH with tetrahydro[5,6]benzindole modification]	−	−	−	++	substantially inhibited	A proportionate inhibition and restoration of growth were observable by optical density measurements	++	substantially inhibited	+	++	++	++^b	++	+	treated cells were able to overcome this by 24 h	bacteriostatic activities rather than bactericidal	small chains were observed	significantly increased	significantly increased	do not induce the system	reproducibility of inhibition (S. pneumoniae D39; 100 nM, three experiments): b For S. pneumoniae D39, two experiments showed inhibition with 100 nM tryglysin A, one experiment did not.; inhibitory activity after UV exposure (S. mutans UA159 [6]): Proportionate decrease of inhibitory activity was observed; also recorded: inhibitory activity can be inactivated by exposure to UV light; induction of PwgkA-luxAB by tryglysins [5]: do not induce the system
